Data on five compounds can be found in patent US20090318430A1, “MEDICAL USE OF CYCLIN DEPENDENT KINASES INHIBITORS” (ASTEX THERAPEUTICS LIMITED, priority 2006, published 2009).

For data set [1], the system named is rat model of focal cerebral ischemia. The conditions noted are these: cited from earlier work.
Data set [2] can be described thus: Vapour sorption/desorption analysis. In kind it is physicochemical. The procedure: Crystals of 4-(2,6-dichlorobenzoylamino)-1H-pyrazole-3-carboxylic acid (1-methanesulphonyl-piperidin-4-yl)-amide prepared by the recrystallisation method of Example 11 Step 8 were subjected to vapour sorption/desorption analysis in order to test for the propensity of this sample to form a hydrated state.
Approximately 20 mg of sample was placed into a wire-mesh vapour sorption balance pan and loaded into an ‘IgaSorp’ vapour sorption balance (Hiden Analytical Instruments) held at 25+/−0.1° C. The sample was then dried by maintaining a 0% humidity environment (using mass flow control apparatus) until no further weight change was recorded. Subsequently, the sample was then subjected to a ramping profile from 0-90% relative humidity (% RH) at 10% RH increments, maintaining the sample at each step until equilibration had been attained (99.5% step completion).
Upon reaching equilibration, the % RH within the apparatus was ramped to the next step and the equilibration procedure repeated. After completion of the sorption cycle, the sample was then dried using the same procedure. The weight change during the sorption/desorption cycles was then monitored, allowing for the hygroscopic nature of the sample to be determined.

For data set [3], the target named is T1, Cdk5/p35 enzyme (Upstate) (Homo sapiens, UniProt Q00535).
T1 construct: purchased Upstate
The data set can be described thus: Alternative CDK5 assay (DELFIA, biotinylated histone H1 peptide). The conditions noted are these: Cdk5/p35, ATP, 30 minutes at room temperature, TRF read-out. In kind it is biochemical.
Procedure: In a 96-well polypropylene plate add 5 μl of 5× test compound (in 12.5% DMSO) per well. Prepare an assay mix of 2.5 μM biotinylated histone H1 peptide (Bachem), 2.5 mM DTT in 1× assay buffer (10× assay buffer contains 250 mM Tris-HCl pH7.5, 2.5 mM MgCl2, 0.025 Brij-35, 0.1 mg/ml BSA. Add 10 μl of assay mix per well. Prepare the Cdk5/p35 enzyme (Upstate) at 0.625 nM in 1× assay buffer with 37.5 μM ATP on ice. Add 10 μl per well to start the reaction, seal with sealing film and incubate for 30 minutes at room temperature on a plate shaker. Stop the reaction by the addition of 100 μl stop buffer (1× Blocker BSA-Pierce, 0.05% surfact-AMPS-20, 100 mM EDTA). Shake plate for 1 minute. Transfer 100 μl of the stopped reaction to a black Neutravidin coated plate. Shake at room temperature for 30 minutes. Wash plate 5× with 200 μl TBS-Tween. Add 100 μl of anti-phospho cdk1-substrate antibody (Calbiochem) at 1:1500 in 1×DELFIA assay buffer (Perkin Elmer) to each well. Shake for 1 hour at room temperature. Wash plate 5× with 200 μl TBS-Tween. Add 100 μl of Eu-labelled anti-rabbit IgG at 1:300 in 1×DELFIA assay buffer per well. Shake for 1 hour at room temperature. Wash plate 5× with 200 μl TBS-Tween. Add 100 μl DELFIA enhancement solution (Perkin Elmer) per well and incubate 5 minutes on a plate shaker at <900 rpm. Read using TRF enabled fluorimeter at 335ex/620em.

Data set [4] has as its system jck and cpk mouse models of PKD. The conditions noted are these: cited from earlier work.
The test system of data set [5] is formalin-induced nociceptive responses in rats. As to conditions: cited from earlier work.
Data set [6] in a line: Solubility of the acid addition salt. In kind it is physicochemical.
In data set [7] the test system is polycystic cpk mice. As to conditions: cited from earlier work.

Structures can show the parent of a compound that is named as a salt.

T1 sequence (Q00535 whole entry): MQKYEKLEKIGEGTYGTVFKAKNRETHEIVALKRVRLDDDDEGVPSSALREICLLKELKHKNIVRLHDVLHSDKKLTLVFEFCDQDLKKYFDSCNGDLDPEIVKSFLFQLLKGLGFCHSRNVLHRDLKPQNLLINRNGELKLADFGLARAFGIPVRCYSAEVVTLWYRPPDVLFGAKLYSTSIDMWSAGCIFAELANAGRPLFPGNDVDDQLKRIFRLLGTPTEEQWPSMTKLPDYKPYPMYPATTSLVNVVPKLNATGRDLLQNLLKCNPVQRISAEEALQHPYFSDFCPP
T1 sequence (Q15078 whole entry partner): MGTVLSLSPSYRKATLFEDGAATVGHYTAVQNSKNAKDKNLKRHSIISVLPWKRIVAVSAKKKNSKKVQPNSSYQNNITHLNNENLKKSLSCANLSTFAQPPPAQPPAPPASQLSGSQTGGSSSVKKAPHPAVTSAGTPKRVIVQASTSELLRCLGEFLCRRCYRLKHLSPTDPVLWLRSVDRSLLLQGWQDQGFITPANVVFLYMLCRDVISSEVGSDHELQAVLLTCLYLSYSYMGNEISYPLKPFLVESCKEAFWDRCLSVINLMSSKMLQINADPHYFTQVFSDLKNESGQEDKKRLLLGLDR

For `CN1CC[C@H](c2c(O)cc(O)c3c(=O)cc(-c4ccccc4Cl)oc23)[C@H](O)C1` [flavopiridol], in data set [1], the neuronal death result is “significantly reduce neuronal death”. By IC50 is commonly meant the midpoint of a concentration-inhibition curve. For the compound `CS(=O)(=O)N1CCC(NC(=O)c2n[nH]cc2NC(=O)c2c(Cl)cccc2Cl)CC1` [Example 12, 4-(2,6-dichloro-benzoylamino)-1H-pyrazole-3-carboxylic acid (1-methanesulphonyl-piperidin-4-yl)-amide], in data set [2] (crystals, 25 °C, stepwise 0-90% relative humidity), the “weight increase upon equilibration at 90% RH” value stood at 0.24%. Moreover, the “hygroscopicity / hydrate formation” value in data set [2] (storage in elevated humidity conditions) is “physically stable with regard to hygroscopicity”. Moreover, the IC50 in data set [3] is under 100 nM. Consider `CC[C@H](CO)Nc1nc(NCc2ccccc2)c2ncn(C(C)C)c2n1` [roscovitine], for which the cystic disease result in data set [4] is listed as “effective arrest of cystic disease”. For the same compound, in data set [5], the formalin-induced nociceptive responses entry is “attenuate the formalin-induced nociceptive responses”. Broadly, the solubility is the concentration that dissolves in the medium under given conditions. Consider `O=C(NC1CCNCC1)c1n[nH]cc1NC(=O)c1c(Cl)cccc1Cl` [methanesulphonic acid salt, 4-(2,6-dichlorobenzoylamino)-1H-pyrazole-3-carboxylic acid piperidin-4-ylamide methanesulphonate], for which the solubility in data set [6] (pH 4.6, aqueous buffer, buffer formed from acetic acid and sodium acetate, solution pH approximately 4.6) was about 35 mg/mL. In data set [6] (water, qualitative statement), the water solubility entry is “excellent water solubility”. For the compound `CC(=O)O[C@H]1C(=O)[C@@]2(C)[C@H]([C@H](OC(=O)c3ccccc3)[C@]3(O)C[C@H](OC(=O)[C@H](O)[C@@H](NC(=O)c4ccccc4)c4ccccc4)C(C)=C1C3(C)C)[C@]1(OC(C)=O)CO[C@@H]1C[C@@H]2O` [taxol], the “progression of PKD and survival” value in data set [7] is “inhibit the progression of PKD and prolongs the survival”.
